Experimental data from the kinase profiling compilation of Christmann-Franck et al. (2016).
Values belong to the compound of their own block, whether it stands above or below them.

Experiments:
Experiment in all cases: radiometric filter-binding kinase assay
CHEK2 (human) = CHEK2 (human) (UniProt O96017)
EPHB4 (human) = EPHB4 (human) (UniProt P54760)
[1] = system: SGK1 (human), O00141 [S422D]
TAOK1 (human) = TAOK1 (human) (UniProt Q7L7X3)
DAPK1 (human) = DAPK1 (human) (UniProt P53355)
PRKCA (human) = PRKCA (human) (UniProt P17252)
CLK2 (human) = CLK2 (human) (UniProt P49760)
NEK2 (human) = NEK2 (human) (UniProt P51955)
Sequence of NEK2 (human) (P51955 whole entry, looked up): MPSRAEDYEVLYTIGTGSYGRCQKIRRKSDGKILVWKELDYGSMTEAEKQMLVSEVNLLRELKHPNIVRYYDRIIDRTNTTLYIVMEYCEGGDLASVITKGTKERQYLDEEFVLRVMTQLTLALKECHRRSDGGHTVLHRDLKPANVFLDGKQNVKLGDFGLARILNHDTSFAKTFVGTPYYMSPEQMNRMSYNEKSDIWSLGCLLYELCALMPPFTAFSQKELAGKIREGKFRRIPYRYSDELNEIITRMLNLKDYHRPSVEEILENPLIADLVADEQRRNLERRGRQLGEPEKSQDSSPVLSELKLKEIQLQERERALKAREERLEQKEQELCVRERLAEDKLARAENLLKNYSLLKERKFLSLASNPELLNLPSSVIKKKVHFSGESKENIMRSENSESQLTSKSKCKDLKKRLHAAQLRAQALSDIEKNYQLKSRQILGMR

EPHB2 (human) = EPHB2 (human) (UniProt P29323)
IRAK4 (human) = IRAK4 (human) (UniProt Q9NWZ3)
ROCK2 (rat) = conditions: accession and sequence are those of the human protein
DYRK2 (human) = DYRK2 (human) (UniProt Q92630)
Sequence of DYRK2 (human) (Q92630 whole entry, looked up): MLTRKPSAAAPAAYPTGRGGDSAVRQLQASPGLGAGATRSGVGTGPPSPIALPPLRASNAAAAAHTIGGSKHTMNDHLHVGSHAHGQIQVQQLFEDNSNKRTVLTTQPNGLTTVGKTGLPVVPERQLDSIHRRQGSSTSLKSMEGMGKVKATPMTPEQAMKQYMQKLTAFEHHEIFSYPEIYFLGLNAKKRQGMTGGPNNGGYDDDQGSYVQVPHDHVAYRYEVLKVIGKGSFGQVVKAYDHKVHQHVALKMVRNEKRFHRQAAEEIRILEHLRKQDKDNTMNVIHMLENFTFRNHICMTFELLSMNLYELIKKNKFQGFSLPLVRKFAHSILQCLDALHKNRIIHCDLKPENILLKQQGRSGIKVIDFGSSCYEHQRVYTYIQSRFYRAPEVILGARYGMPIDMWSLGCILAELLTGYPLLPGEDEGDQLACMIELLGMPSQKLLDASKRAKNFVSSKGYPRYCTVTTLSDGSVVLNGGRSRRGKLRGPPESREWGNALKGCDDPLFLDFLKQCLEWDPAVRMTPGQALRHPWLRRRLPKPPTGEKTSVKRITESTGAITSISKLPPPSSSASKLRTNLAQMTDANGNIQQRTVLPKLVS

FLT1 (human) = FLT1 (human) (UniProt P17948)
PKN2 (human) = PKN2 (human) (UniProt Q16513)
RPS6KA1 KD1 KD2 (human) = RPS6KA1 KD1 KD2 (human) (UniProt Q15418)
MAPK12 (human) = MAPK12 (human) (UniProt P53778)
MARK1 (human) = MARK1 (human) (UniProt Q9P0L2)
STK3 (human) = STK3 (human) (UniProt Q13188)
Sequence of STK3 (human) (Q13188 whole entry, looked up): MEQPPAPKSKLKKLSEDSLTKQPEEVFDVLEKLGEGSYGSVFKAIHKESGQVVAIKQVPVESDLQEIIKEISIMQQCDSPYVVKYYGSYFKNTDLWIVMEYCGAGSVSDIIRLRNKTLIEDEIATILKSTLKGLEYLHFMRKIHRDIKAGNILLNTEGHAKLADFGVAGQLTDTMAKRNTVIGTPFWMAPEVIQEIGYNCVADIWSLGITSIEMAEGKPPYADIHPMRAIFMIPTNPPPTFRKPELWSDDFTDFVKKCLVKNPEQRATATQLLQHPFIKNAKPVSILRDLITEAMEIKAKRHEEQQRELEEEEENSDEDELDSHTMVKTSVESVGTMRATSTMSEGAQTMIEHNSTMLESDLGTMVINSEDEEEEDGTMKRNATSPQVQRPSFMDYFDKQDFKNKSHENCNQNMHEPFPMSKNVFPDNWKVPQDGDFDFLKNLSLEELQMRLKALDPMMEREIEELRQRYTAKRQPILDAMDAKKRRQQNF

PIM3 (human) = PIM3 (human) (UniProt Q86V86)
HIPK2 (human) = HIPK2 (human) (UniProt Q9H2X6)
[2] = system: RPS6KB1 (human), P23443 [T412E]
PIM1 (human) = PIM1 (human) (UniProt P11309)
MAP3K7 TAB1 (human) = MAP3K7 TAB1 (human) (UniProt Q15750+O43318)
TTK (human) = TTK (human) (UniProt P33981)
MAPKAPK5 (human) = MAPKAPK5 (human) (UniProt Q8IW41)
EPHA2 (human) = EPHA2 (human) (UniProt P29317)
MELK (human) = MELK (human) (UniProt Q14680)
Sequence of MELK (human) (Q14680 whole entry, looked up): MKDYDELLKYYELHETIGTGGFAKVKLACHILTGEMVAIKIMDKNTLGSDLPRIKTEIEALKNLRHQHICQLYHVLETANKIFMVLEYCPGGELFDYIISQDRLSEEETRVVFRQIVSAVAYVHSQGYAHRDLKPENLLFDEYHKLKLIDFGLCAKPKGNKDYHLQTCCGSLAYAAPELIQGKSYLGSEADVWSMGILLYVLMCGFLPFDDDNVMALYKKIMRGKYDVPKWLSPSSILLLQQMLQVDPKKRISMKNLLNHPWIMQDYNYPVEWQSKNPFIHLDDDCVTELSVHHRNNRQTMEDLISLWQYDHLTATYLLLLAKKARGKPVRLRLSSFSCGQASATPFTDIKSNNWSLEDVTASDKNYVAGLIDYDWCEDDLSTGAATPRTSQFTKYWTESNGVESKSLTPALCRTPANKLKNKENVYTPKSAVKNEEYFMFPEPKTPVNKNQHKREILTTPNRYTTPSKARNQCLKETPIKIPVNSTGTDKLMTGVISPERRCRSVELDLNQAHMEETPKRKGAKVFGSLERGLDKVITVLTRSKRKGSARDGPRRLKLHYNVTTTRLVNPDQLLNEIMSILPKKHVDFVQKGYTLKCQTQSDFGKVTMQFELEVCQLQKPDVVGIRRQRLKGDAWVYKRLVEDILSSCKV

MARK2 (human) = MARK2 (human) (UniProt Q7KZI7)
DYRK3 (human) = DYRK3 (human) (UniProt O43781)
MAPKAPK2 (human) = MAPKAPK2 (human) (UniProt P49137)
EPHB1 (human) = EPHB1 (human) (UniProt P54762)
Sequence of EPHB1 (human) (P54762 whole entry, looked up): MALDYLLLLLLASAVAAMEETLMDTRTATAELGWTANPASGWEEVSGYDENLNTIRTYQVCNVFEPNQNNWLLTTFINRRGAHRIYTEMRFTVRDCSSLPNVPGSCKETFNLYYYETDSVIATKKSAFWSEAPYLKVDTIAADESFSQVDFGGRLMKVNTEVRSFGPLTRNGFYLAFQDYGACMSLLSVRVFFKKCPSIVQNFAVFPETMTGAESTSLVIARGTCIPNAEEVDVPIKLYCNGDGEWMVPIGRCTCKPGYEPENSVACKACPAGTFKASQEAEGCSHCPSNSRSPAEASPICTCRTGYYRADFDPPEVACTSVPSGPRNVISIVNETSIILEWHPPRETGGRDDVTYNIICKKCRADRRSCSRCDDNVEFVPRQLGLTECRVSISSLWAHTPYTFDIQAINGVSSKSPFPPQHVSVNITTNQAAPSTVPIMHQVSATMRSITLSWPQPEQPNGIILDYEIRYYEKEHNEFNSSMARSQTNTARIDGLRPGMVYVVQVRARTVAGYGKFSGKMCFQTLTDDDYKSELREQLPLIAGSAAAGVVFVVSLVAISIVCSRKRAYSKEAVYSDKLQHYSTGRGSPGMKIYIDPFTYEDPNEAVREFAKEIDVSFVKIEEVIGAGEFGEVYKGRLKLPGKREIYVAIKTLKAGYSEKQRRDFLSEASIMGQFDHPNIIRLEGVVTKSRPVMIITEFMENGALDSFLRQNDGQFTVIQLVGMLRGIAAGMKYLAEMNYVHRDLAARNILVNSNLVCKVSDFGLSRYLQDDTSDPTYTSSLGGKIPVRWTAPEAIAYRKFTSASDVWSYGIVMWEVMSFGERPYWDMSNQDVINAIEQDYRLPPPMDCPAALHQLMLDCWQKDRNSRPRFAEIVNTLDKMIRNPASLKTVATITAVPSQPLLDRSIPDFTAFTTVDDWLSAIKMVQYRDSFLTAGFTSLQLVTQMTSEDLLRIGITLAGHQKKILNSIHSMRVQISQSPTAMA

MYLK (human) = MYLK (human) (UniProt Q15746)
Sequence of MYLK (human) (Q15746 whole entry, looked up): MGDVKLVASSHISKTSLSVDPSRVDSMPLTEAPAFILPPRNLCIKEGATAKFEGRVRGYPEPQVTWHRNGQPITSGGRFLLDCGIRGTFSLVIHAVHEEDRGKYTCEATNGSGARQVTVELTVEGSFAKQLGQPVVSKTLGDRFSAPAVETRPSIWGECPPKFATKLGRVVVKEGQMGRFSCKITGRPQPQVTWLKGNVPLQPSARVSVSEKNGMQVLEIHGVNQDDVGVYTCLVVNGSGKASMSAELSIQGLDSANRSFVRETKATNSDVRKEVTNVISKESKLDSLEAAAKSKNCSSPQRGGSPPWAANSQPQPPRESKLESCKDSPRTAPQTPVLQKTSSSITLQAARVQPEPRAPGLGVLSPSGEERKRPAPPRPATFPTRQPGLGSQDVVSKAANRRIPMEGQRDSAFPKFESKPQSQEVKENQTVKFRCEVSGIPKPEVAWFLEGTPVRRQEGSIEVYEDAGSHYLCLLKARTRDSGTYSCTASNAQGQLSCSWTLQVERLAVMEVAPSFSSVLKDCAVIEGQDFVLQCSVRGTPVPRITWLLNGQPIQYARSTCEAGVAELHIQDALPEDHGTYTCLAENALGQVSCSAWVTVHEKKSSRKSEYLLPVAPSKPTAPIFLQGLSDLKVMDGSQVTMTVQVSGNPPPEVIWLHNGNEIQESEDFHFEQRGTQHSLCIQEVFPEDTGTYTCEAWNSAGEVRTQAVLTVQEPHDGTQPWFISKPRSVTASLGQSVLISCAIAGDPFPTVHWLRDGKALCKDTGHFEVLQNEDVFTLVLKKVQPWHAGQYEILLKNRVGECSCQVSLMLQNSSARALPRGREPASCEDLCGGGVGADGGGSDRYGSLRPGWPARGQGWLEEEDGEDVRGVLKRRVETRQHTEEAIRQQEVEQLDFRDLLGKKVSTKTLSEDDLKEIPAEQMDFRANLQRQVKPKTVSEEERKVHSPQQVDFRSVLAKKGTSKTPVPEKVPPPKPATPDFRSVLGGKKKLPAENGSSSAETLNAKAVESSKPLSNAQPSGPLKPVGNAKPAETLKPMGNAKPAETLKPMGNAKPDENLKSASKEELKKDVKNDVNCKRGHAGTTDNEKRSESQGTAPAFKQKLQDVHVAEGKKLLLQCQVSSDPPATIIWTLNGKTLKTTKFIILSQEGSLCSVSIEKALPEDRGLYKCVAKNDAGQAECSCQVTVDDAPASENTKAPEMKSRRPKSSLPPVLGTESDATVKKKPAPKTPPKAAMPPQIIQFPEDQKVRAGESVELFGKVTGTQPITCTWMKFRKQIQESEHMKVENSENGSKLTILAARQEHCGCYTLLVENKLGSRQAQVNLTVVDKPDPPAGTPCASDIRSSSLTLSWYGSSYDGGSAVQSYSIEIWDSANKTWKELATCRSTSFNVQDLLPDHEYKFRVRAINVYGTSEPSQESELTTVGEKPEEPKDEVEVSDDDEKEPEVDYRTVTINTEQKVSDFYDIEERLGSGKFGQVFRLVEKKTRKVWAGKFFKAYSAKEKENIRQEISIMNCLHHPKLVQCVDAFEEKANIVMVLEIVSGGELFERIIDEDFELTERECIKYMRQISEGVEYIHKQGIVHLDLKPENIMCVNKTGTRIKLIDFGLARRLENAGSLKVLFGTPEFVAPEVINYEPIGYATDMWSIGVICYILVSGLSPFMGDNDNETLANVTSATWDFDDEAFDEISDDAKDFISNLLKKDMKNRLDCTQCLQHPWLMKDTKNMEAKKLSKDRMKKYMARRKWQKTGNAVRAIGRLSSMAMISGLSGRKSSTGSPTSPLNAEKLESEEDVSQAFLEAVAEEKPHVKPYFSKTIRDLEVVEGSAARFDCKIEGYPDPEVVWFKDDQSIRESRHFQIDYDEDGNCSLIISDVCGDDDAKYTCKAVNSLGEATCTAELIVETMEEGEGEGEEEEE

MAPK14 (human) = MAPK14 (human) (UniProt Q16539)
GCK (human) = GCK (human) (UniProt Q12851)
IKBKE (human) = IKBKE (human) (UniProt Q14164)

- residual activity (CHEK2 (human); compound 0.01 µM): 91%
- residual activity (CHEK2 (human); compound 0.1 µM): 91%
- residual activity (EPHB4 (human); compound 0.01 µM): 109%
- residual activity (EPHB4 (human); compound 0.1 µM): 116%
- residual activity ([1]; compound 0.01 µM): 93%
- residual activity ([1]; compound 0.1 µM): 91%
- residual activity ([1]; compound 1.0 µM): 104%
- residual activity (TAOK1 (human); compound 0.01 µM): 106%
- residual activity (TAOK1 (human); compound 0.1 µM): 101%
- residual activity (TAOK1 (human); compound 1.0 µM): 100%
- residual activity (DAPK1 (human); compound 0.01 µM): 82%
- residual activity (DAPK1 (human); compound 0.1 µM): 108%
- residual activity (DAPK1 (human); compound 1.0 µM): 96%
- residual activity (PRKCA (human); compound 0.01 µM): 88%
- residual activity (PRKCA (human); compound 0.1 µM): 88%
- residual activity (PRKCA (human); compound 1.0 µM): 92%
- residual activity (CLK2 (human); compound 0.01 µM): 94%
- residual activity (CLK2 (human); compound 0.1 µM): 100%
- residual activity (NEK2 (human); compound 0.01 µM): 103%
- residual activity (NEK2 (human); compound 0.1 µM): 127%
- residual activity (NEK2 (human); compound 1.0 µM): 105%
- residual activity (EPHB2 (human); compound 0.01 µM): 124%
- residual activity (EPHB2 (human); compound 0.1 µM): 118%
- residual activity (EPHB2 (human); compound 1.0 µM): 115%
- residual activity (IRAK4 (human); compound 0.01 µM): 112%
- residual activity (IRAK4 (human); compound 0.1 µM): 99%
- residual activity (IRAK4 (human); compound 1.0 µM): 57%
- residual activity (ROCK2 (rat); compound 0.01 µM): 91%
- residual activity (ROCK2 (rat); compound 0.1 µM): 94%
- residual activity (ROCK2 (rat); compound 1.0 µM): 99%
- residual activity (DYRK2 (human); compound 0.01 µM): 109%
- residual activity (DYRK2 (human); compound 0.1 µM): 105%
- residual activity (FLT1 (human); compound 0.01 µM): 65%
- residual activity (FLT1 (human); compound 0.1 µM): 5%
- residual activity (FLT1 (human); compound 1.0 µM): 3%
- residual activity (PKN2 (human); compound 0.01 µM): 93%
- residual activity (RPS6KA1 KD1 KD2 (human); compound 0.1 µM): 92%
- residual activity (RPS6KA1 KD1 KD2 (human); compound 1.0 µM): 85%
- residual activity (MAPK12 (human); compound 0.01 µM): 100%
- residual activity (MAPK12 (human); compound 0.1 µM): 105%
- residual activity (MARK1 (human); compound 0.01 µM): 101%
- residual activity (MARK1 (human); compound 0.1 µM): 99%
- residual activity (MARK1 (human); compound 1.0 µM): 101%
- residual activity (STK3 (human); compound 0.01 µM): 97%
- residual activity (STK3 (human); compound 0.1 µM): 89%
- residual activity (STK3 (human); compound 1.0 µM): 102%
- residual activity (PIM3 (human); compound 0.01 µM): 92%
- residual activity (PIM3 (human); compound 0.1 µM): 98%
- residual activity (PIM3 (human); compound 1.0 µM): 99%
- residual activity (HIPK2 (human); compound 0.01 µM): 96%
- residual activity (HIPK2 (human); compound 0.1 µM): 86%
- residual activity (HIPK2 (human); compound 1.0 µM): 72%
- residual activity ([2]; compound 0.01 µM): 87%
- residual activity ([2]; compound 0.1 µM): 92%
- residual activity ([2]; compound 1.0 µM): 106%
- residual activity (PIM1 (human); compound 0.01 µM): 90%
- residual activity (PIM1 (human); compound 0.1 µM): 87%
- residual activity (PIM1 (human); compound 1.0 µM): 92%
- residual activity (MAP3K7 TAB1 (human); compound 0.01 µM): 101%
- residual activity (MAP3K7 TAB1 (human); compound 0.1 µM): 48%
- residual activity (MAP3K7 TAB1 (human); compound 1.0 µM): 2%
- residual activity (TTK (human); compound 0.01 µM): 101%
- residual activity (TTK (human); compound 0.1 µM): 95%
- residual activity (TTK (human); compound 1.0 µM): 101%
- residual activity (MAPKAPK5 (human); compound 0.01 µM): 74%
- residual activity (MAPKAPK5 (human); compound 0.1 µM): 72%
- residual activity (MAPKAPK5 (human); compound 1.0 µM): 32%
- residual activity (EPHA2 (human); compound 0.01 µM): 97%
- residual activity (EPHA2 (human); compound 0.1 µM): 98%
- residual activity (EPHA2 (human); compound 1.0 µM): 56%
- residual activity (MELK (human); compound 0.01 µM): 92%
- residual activity (MELK (human); compound 0.1 µM): 100%
- residual activity (MELK (human); compound 1.0 µM): 104%
- residual activity (MARK2 (human); compound 0.01 µM): 90%
- residual activity (MARK2 (human); compound 0.1 µM): 100%
- residual activity (MARK2 (human); compound 1.0 µM): 100%
- residual activity (DYRK3 (human); compound 0.01 µM): 113%
- residual activity (DYRK3 (human); compound 0.1 µM): 109%
- residual activity (DYRK3 (human); compound 1.0 µM): 124%
- residual activity (MAPKAPK2 (human); compound 0.01 µM): 93%
- residual activity (MAPKAPK2 (human); compound 0.1 µM): 101%
- residual activity (EPHB1 (human); compound 0.01 µM): 97%
- residual activity (EPHB1 (human); compound 0.1 µM): 110%
- residual activity (EPHB1 (human); compound 1.0 µM): 84%
- residual activity (MYLK (human); compound 0.01 µM): 108%
- residual activity (MYLK (human); compound 0.1 µM): 102%
- residual activity (MYLK (human); compound 1.0 µM): 96%
- residual activity (MAPK14 (human); compound 0.01 µM): 108%
- residual activity (MAPK14 (human); compound 0.1 µM): 105%
- residual activity (MAPK14 (human); compound 1.0 µM): 105%
- residual activity (GCK (human); compound 0.01 µM): 114%
- residual activity (GCK (human); compound 0.1 µM): 105%
- residual activity (GCK (human); compound 1.0 µM): 97%
- residual activity (IKBKE (human); compound 0.01 µM): 108%
- residual activity (IKBKE (human); compound 0.1 µM): 105%
- residual activity (IKBKE (human); compound 1.0 µM): 92%
SMILES: COc1cc(O)c2c(c1)[C@H]1OC1C[C@H](O)[C@H](O)C(=O)/C=C\C[C@H](C)OC2=O (stereo partly specified)

- residual activity (CHEK2 (human); compound 1.0 µM): 97%
- residual activity (CHEK2 (human); compound 10.0 µM): 59%
- residual activity (EPHB4 (human); compound 1.0 µM): 97%
- residual activity (EPHB4 (human); compound 10.0 µM): 96%
- residual activity ([1]; compound 1.0 µM): 100%
- residual activity ([1]; compound 10.0 µM): 68%
- residual activity (TAOK1 (human); compound 1.0 µM): 82%
- residual activity (TAOK1 (human); compound 10.0 µM): 36%
- residual activity (DAPK1 (human); compound 1.0 µM): 88%
- residual activity (DAPK1 (human); compound 10.0 µM): 18%
- residual activity (PRKCA (human); compound 1.0 µM): 76%
- residual activity (PRKCA (human); compound 10.0 µM): 30%
- residual activity (CLK2 (human); compound 1.0 µM): 80%
- residual activity (CLK2 (human); compound 10.0 µM): 12%
- residual activity (NEK2 (human); compound 1.0 µM): 94%
- residual activity (NEK2 (human); compound 10.0 µM): 80%
- residual activity (EPHB2 (human); compound 1.0 µM): 106%
- residual activity (EPHB2 (human); compound 10.0 µM): 99%
- residual activity (IRAK4 (human); compound 1.0 µM): 88%
- residual activity (IRAK4 (human); compound 10.0 µM): 74%
- residual activity (ROCK2 (rat); compound 1.0 µM): 73%
- residual activity (ROCK2 (rat); compound 10.0 µM): 38%
- residual activity (DYRK2 (human); compound 1.0 µM): 7%
- residual activity (DYRK2 (human); compound 10.0 µM): 2%
- residual activity (FLT1 (human); compound 1.0 µM): 84%
- residual activity (FLT1 (human); compound 10.0 µM): 24%
- residual activity (PKN2 (human); compound 1.0 µM): 80%
- residual activity (PKN2 (human); compound 10.0 µM): 53%
- residual activity (RPS6KA1 KD1 KD2 (human); compound 1.0 µM): 88%
- residual activity (RPS6KA1 KD1 KD2 (human); compound 10.0 µM): 33%
- residual activity (MAPK12 (human); compound 1.0 µM): 86%
- residual activity (MAPK12 (human); compound 10.0 µM): 65%
- residual activity (MARK1 (human); compound 1.0 µM): 89%
- residual activity (MARK1 (human); compound 10.0 µM): 78%
- residual activity (STK3 (human); compound 1.0 µM): 98%
- residual activity (STK3 (human); compound 10.0 µM): 75%
- residual activity (PIM3 (human); compound 1.0 µM): 79%
- residual activity (PIM3 (human); compound 10.0 µM): 21%
- residual activity (HIPK2 (human); compound 1.0 µM): 64%
- residual activity (HIPK2 (human); compound 10.0 µM): 10%
- residual activity ([2]; compound 1.0 µM): 96%
- residual activity ([2]; compound 10.0 µM): 64%
- residual activity (PIM1 (human); compound 1.0 µM): 70%
- residual activity (PIM1 (human); compound 10.0 µM): 18%
- residual activity (MAP3K7 TAB1 (human); compound 1.0 µM): 82%
- residual activity (MAP3K7 TAB1 (human); compound 10.0 µM): 75%
- residual activity (TTK (human); compound 1.0 µM): 79%
- residual activity (TTK (human); compound 10.0 µM): 51%
- residual activity (MAPKAPK5 (human); compound 1.0 µM): 104%
- residual activity (MAPKAPK5 (human); compound 10.0 µM): 56%
- residual activity (EPHA2 (human); compound 1.0 µM): 94%
- residual activity (EPHA2 (human); compound 10.0 µM): 89%
- residual activity (MELK (human); compound 1.0 µM): 77%
- residual activity (MELK (human); compound 10.0 µM): 62%
- residual activity (MARK2 (human); compound 1.0 µM): 80%
- residual activity (MARK2 (human); compound 10.0 µM): 83%
- residual activity (DYRK3 (human); compound 1.0 µM): 15%
- residual activity (DYRK3 (human); compound 10.0 µM): 6%
- residual activity (MAPKAPK2 (human); compound 1.0 µM): 93%
- residual activity (MAPKAPK2 (human); compound 10.0 µM): 85%
- residual activity (EPHB1 (human); compound 1.0 µM): 95%
- residual activity (EPHB1 (human); compound 10.0 µM): 107%
- residual activity (MYLK (human); compound 1.0 µM): 86%
- residual activity (MYLK (human); compound 10.0 µM): 35%
- residual activity (MAPK14 (human); compound 1.0 µM): 106%
- residual activity (MAPK14 (human); compound 10.0 µM): 98%
- residual activity (GCK (human); compound 1.0 µM): 78%
- residual activity (GCK (human); compound 10.0 µM): 13%
- residual activity (IKBKE (human); compound 1.0 µM): 89%
- residual activity (IKBKE (human); compound 10.0 µM): 69%
SMILES: NC(=O)c1ccc(-c2ccc(Oc3cncc4sc(-c5nn[nH]n5)cc34)cc2)cc1
